According to patent US9295665B2, “Inhibition of neovascularization by simultaneous inhibition of prostanoid IP and EP4 receptors” (ALLERGAN, INC., priority 2013, dated 2016):
One block for each compound: values may come before it.

How the values were obtained:
IP receptor [1] = target: T1, IP receptor (Homo sapiens, UniProt P43119); test: VEGF secretion in TNFα-stimulated human macrophages (IP agonist / IP antagonist)
Protocol: (§1) Histogram ordering (both panels, left to right): No stimulus; vehicle; 0.1 nM; 1 nM; 10 nM; 100 nM; 1000 nM of agonist.

IP receptor [2] = target: T1, IP receptor; test: Cellular Dielectric Spectroscopy (impedance) in human retinal microvascular endothelial cells, IP agonist; format: cell-based; parameters: TNFα-stimulated human macrophages, obtained from individual donors; endogenous in cells; host or cells: TNFα-stimulated human macrophages from individual donors; conditions: HRMECs, normalized to PGE2 at 10 μM; read-out: EC50, change in impedance
Protocol: Cellular dielectric spectroscopy, as known in the art, was employed to determine EC50 levels for EP4 agonist and IP agonist in human retinal microvascular endothelial cells (HRMECs). […].
Cellular Dielectric Spectroscopy (CDS) is a label-free technology to measure the changes in impedance of cells in response to receptor stimulation. HRMEC cells were seeded at on 96 well plates (CDS plates) coated with fibronectin and incubated for 24 hrs at 37° C., 5% CO2. On the day of the experiment, the culture medium was replaced by HBSS, BSA 1% and incubated for 1 h at 28° C. Compounds were then added and the signal was monitored for 10 minutes at 28° C. Compounds were tested at the following final concentrations in assay buffer containing 0.1% DMSO: 1E-12, 1E-11, 1E-10, 1E-9, 1E-8, 1E-7, 1E-6, and 1E-5M. The background signal (buffer only) was systematically subtracted to the signal in order to determine the specific signal. The effect of EP4 agonist Formula V and IP agonist Cicaprost were normalized to the signal of the positive control PGE2 at 10 μM. All data were generated in duplicate.

EP4 receptor = EP4 receptor (Homo sapiens, UniProt P35408); test: VEGF secretion in TNFα-stimulated human macrophages (EP4 agonist / EP4 antagonist); conditions: 100 nM PGE2, TNFα-stimulated human macrophages from individual donors, 1, 3, 10 μM antagonist, n=3
Chain of EP4 receptor (P35408 whole entry): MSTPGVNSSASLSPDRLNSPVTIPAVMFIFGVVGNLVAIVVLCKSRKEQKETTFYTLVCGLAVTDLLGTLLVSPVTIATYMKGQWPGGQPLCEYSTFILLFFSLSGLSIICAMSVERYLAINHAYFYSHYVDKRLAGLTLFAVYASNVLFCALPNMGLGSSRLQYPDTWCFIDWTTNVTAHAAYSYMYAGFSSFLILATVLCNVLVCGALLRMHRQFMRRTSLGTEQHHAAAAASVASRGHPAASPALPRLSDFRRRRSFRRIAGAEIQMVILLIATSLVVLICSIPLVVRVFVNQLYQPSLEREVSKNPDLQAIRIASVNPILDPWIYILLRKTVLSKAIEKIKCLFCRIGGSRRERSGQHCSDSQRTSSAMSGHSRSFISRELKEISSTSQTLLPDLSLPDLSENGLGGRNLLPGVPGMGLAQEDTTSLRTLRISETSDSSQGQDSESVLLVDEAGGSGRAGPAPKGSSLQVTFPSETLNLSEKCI
Protocol: as §1

T1 sequence (P43119 whole entry): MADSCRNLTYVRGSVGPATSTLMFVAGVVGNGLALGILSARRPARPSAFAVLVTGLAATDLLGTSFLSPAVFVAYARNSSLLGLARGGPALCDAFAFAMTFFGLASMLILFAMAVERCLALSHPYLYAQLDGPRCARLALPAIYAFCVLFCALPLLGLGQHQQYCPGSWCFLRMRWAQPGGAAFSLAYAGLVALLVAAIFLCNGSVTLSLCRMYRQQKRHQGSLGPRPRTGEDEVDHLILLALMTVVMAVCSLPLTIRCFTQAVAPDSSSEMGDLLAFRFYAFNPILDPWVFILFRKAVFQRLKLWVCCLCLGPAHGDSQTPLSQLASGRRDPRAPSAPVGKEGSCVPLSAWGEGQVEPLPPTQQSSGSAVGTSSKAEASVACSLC

EC50 (IP receptor [1]): 2.3 nM
EC50 (IP receptor [2]): 18 nM
SMILES: CCC#CC[C@H](C)[C@H](O)C#C[C@@H]1[C@H]2C/C(=C/COCC(=O)O)C[C@H]2C[C@H]1O [Cicaprost, cicaprost]

Inhibition of PGE2-induced VEGF secretion (EP4 receptor): dose dependently inhibiting
SMILES: CCOc1c2c(c(OCC)c3ccccc13)C(=O)N(c1ccc(CC(=O)NS(=O)(=O)c3ccccc3)cc1)C2 [Formula IV]

Inhibition of Cicaprost-induced VEGF secretion (IP receptor [1]; 100 nM Cicaprost, TNFα-stimulated human macrophages from individual donors, 1, 3, 10 μM antagonist, n=2): dose dependently inhibiting
SMILES: CC(C)Oc1ccc(Cc2ccc(NC3=NCCN3)cc2)cc1 [Formula I]
